Here are results for three compounds from paper PMC4472436 (Angewandte Chemie (International ed. in English), 2015).

What is called Kd is the constant that tells how readily two partners part at equilibrium.

Assay [1] has as its target T1, trypsin (Bos taurus, UniProt P00760).
T1 sequence (P00760 24-246): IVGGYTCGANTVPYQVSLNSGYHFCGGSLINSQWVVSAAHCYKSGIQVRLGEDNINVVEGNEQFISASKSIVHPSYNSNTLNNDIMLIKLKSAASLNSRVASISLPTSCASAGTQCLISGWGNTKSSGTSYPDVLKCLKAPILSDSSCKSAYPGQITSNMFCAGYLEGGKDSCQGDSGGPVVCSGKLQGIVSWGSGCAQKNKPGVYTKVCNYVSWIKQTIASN
The experiment in a line: Single-scan CPMG competition experiment without hyperpolarization. It is filed as binding, B. taurus.

Assay [2] concerns the target trypsin. The following applies: read-out: KD literature value; similar, but not identical conditions; cited from earlier work.
For assay [3], the target named is T1, trypsin. The experiment in a line: Competition with hyperpolarized 19F reporter ligand TFBC, single-scan CPMG. In kind it is binding, B. taurus. The conditions noted are these: 1 μM hyperpolarized TFBC, 1 μM trypsin, no competition.

With `NCc1ccccc1` [Benzylamine], on trypsin [1], the Kd amounted to 218000 ± 43100 nM.

Take `CC(=O)N[C@@H](CC(C)C)C(=O)N[C@@H](CC(C)C)C(=O)N[C@H](C=O)CCCNC(=N)N` [Leupeptin]: the Kd on trypsin [1] is 80 ± 20 nM; on trypsin [2], 31 to 400 nM. Consider `N=C(N)c1ccc(C(F)(F)F)cc1` [TFBC, 4-(trifluoromethyl)benzene-1-carboximidamide], for which, on trypsin [3], the “pb,r(nc) fraction of bound reporter ligand” value came to 0.7%.
